Results on three compounds are retold here after patent US20220163539A1, “NLRP3 INFLAMMASOME INHIBITION” (Inflazome Limited, priority 2019, published 2022).

SMILES strings stand for the structures.

Assay [1] has as its target T1, NLRP3 in NLRP3 over-expressing HEK293 cell lysate supernatants (Homo sapiens, UniProt Q96P20).
T1 construct: expressed in transfected cells; host or cells: HEK293
The assay can be described thus: Radioligand binding assay with [3H]-MCC7840, gel filtration. Particulars: 200 nM [3H]-MCC7840, 700 μg protein, 4 hrs at RT; minimum of curve fit constrained; read-out: estimated IC50, competition with [3H]-MCC7840.
Method: As NLRP3 is a cytoplasmic protein a conventional filtration binding assay method could not be used to separate free vs bound radiolabel from cell lysates.
Cell pellets were defrosted over ice and diluted one in two with binding buffer. […] Supernatant was removed and stored at −20° C. Protein determination was performed on these samples using the Pierce BCA kit following the manufacturer's instructions.
Binding buffer volume was dependent on the volume of supernatant used in the assay. Samples were combined together and incubated, with shaking, for 4 hrs @ room temperature.
Briefly, the PD MultiTrap plates were spun down at room temperature (RT), 800 g, for 1 minute to remove the storage buffer. They were washed five times with 300 μl/well binding buffer, 800 g, RT for 1 minute.
80 μl of sample was added per well, spun down at 400 g for 1 minute. 50 μl of the flow through was added to 145 μl Microscint-20 in Optiplates. The plate was shaken for approximately 30 minutes at RT prior to reading in a Perkin Elmer TopCount. Data was analysed using GraphPad Prism.
The specific binding was determined by subtracting the non-specific binding from the total binding.

For assay [2], the system named is IL-1β release from THP-1 cells. Description: IL-1β release assay in THP-1 cells (LPS and nigericin stimulation). Particulars: Homo sapiens, THP-1, read-out: IC50 for inhibition of release of IL-1β from THP-1 cells.
From the text: An IL-1β release assay in THP-1 cells was used to assess the ability of the different molecules to inhibit inflammasome-mediated cytokine secretion.

T1 sequence (Q96P20 whole entry): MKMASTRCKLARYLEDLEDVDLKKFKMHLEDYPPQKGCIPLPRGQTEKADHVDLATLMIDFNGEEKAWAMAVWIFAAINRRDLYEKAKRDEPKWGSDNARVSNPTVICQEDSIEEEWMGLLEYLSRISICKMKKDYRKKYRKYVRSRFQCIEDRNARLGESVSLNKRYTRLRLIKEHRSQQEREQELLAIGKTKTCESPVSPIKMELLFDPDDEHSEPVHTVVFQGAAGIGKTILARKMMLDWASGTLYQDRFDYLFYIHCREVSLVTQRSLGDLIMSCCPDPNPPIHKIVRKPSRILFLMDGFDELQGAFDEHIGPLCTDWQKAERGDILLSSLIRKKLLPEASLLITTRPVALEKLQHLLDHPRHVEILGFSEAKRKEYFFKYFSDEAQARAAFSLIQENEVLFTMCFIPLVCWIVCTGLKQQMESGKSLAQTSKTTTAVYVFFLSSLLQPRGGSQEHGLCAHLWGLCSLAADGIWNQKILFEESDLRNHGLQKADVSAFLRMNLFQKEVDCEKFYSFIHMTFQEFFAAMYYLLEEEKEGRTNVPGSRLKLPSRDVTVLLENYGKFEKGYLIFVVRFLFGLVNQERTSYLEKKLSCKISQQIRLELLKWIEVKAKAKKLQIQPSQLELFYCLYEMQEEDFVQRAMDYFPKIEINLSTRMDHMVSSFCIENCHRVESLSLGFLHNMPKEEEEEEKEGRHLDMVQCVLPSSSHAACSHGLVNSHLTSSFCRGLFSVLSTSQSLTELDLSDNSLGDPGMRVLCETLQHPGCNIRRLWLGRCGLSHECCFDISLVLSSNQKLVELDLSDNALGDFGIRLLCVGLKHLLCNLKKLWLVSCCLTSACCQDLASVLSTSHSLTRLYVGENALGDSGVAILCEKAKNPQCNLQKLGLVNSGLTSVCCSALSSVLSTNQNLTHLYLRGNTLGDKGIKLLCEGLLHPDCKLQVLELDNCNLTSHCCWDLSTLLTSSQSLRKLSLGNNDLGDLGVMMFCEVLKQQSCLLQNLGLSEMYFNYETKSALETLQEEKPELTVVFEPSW

In the case of `Nc1ncnc2c1ncn2[C@@H]1O[C@H](COP(=O)(O)OP(=O)(O)OP(=O)(O)O)[C@@H](O)[C@H]1O` [ATP], in assay [1], the IC50 was 75000 µM.
As for `CC(C)(O)c1coc(S(=O)(=O)NC(=O)Nc2c3c(cc4c2CCC4)CCC3)c1` [MCC950], the IC50 in assay [2] was determined as 0.027 µM.
Consider `CC(C)n1ccc(S(=O)(=O)NC(=O)Nc2c3c(cc4c2CCC4)CCC3)n1` [MCC7840], for which the IC50 in assay [2] stood at 0.11 µM.

As a reminder, the IC50 is the midpoint of a concentration-inhibition curve.
